The text below walks through data of paper PMC3304006 (Journal of the American Chemical Society, 2012).

The target of this experiment is free peptide Cys-Lys-D-Ala-D-Ala. The experiment is described as follows: SPR binding to immobilized free peptide. Particulars: read-out: KD values from the current work, Free peptide, equilibrium fit, 25 °C.

Consider `CN[C@H]1C(=O)N[C@@H]2Cc3ccc(cc3)Oc3cc4cc(c3O[C@@H]3O[C@H](C(=O)O)[C@@H](O)[C@H](O)[C@H]3NC(=O)CCCCCCCCC(C)C)Oc3ccc(cc3Cl)[C@@H](O)[C@@H]3NC(=O)[C@H](NC(=O)[C@@H]4NC(=O)[C@@H](NC2=O)c2cc(cc(O)c2Cl)Oc2cc1ccc2O)c1ccc(O)c(c1)-c1c(O[C@H]2O[C@H](CO)[C@@H](O)[C@H](O)[C@@H]2O)cc(O)cc1[C@@H](C(=O)NCCCN(C)C)NC3=O` [Dalbavancin], for which the Kd is 0.855 ± 0.1 µM.

On to `CN[C@H](CC(C)C)C(=O)N[C@H]1C(=O)N[C@@H](CC(N)=O)C(=O)N[C@H]2C(=O)N[C@H]3C(=O)N[C@H](C(=O)N[C@H](C(=O)O)c4cc(O)cc(O)c4-c4cc3ccc4O)[C@H](O)c3ccc(c(Cl)c3)Oc3cc2cc(c3O[C@@H]2O[C@H](CO)[C@@H](O)[C@H](O)[C@H]2O[C@H]2C[C@](C)(N)[C@H](O)[C@H](C)O2)Oc2ccc(cc2Cl)[C@H]1O` [Vancomycin], for which the dissociation constant (Kd) is 4.16 ± 0.52 µM.

For Ristocetin, the Kd came to 2.42 ± 0.68 µM.

As a reminder, the Kd is the concentration at which binding is half-saturated.
